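Values below derive from 48-hour exposures of cells grown in 96-well plates, with endpoints linearly interpolated between the two concentrations bracketing the appropriate inhibition level. Definition used: TGI = concentration required for complete inhibition of growth.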
Tests used:
Assay in all cases: inhibition of tumour cell growth, NCI panel, 48 h
HS 578T breast = test system: HS 578T breast
SK-OV-3 ovarian = test system: SK-OV-3 ovarian
OVCAR-5 ovarian = test system: OVCAR-5 ovarian
CCRF-CEM leukemia = test system: CCRF-CEM leukemia
PC-3 prostate = test system: PC-3 prostate
DU-145 prostate = test system: DU-145 prostate
NCI-H460 lung = test system: NCI-H460 lung
MOLT-4 leukemia = test system: MOLT-4 leukemia
IGROV1 ovarian = test system: IGROV1 ovarian
ACHN renal = test system: ACHN renal
HT29 colon = test system: HT29 colon
NCI-H226 lung = test system: NCI-H226 lung
HCT-116 colon = test system: HCT-116 colon
HOP-92 NSCLC = test system: HOP-92 NSCLC
UACC-257 melanoma = test system: UACC-257 melanoma
OVCAR-8 ovarian = test system: OVCAR-8 ovarian
HL-60(TB) leukemia = test system: HL-60(TB) leukemia
OVCAR-4 ovarian = test system: OVCAR-4 ovarian
SK-MEL-28 melanoma = test system: SK-MEL-28 melanoma
NCI/ADR-RES ovarian = test system: NCI/ADR-RES ovarian
UO-31 renal = test system: UO-31 renal
M14 melanoma = test system: M14 melanoma
SNB-19 CNS = test system: SNB-19 CNS
MDA-N = test system: MDA-N
A549 NSCLC = test system: A549 NSCLC
UACC-62 melanoma = test system: UACC-62 melanoma
MCF7 breast = test system: MCF7 breast
COLO 205 colon = test system: COLO 205 colon
EKVX NSCLC = test system: EKVX NSCLC
MDA-MB-231 breast = test system: MDA-MB-231 breast
T-47D breast = test system: T-47D breast
KM12 colon = test system: KM12 colon
CAKI-1 renal = test system: CAKI-1 renal
NCI-H23 lung = test system: NCI-H23 lung
SR leukemia = test system: SR leukemia
786-0 renal = test system: 786-0 renal
HOP-62 NSCLC = test system: HOP-62 NSCLC
HCC-2998 colon = test system: HCC-2998 colon
A498 renal = test system: A498 renal
OVCAR-3 ovarian = test system: OVCAR-3 ovarian
SF-268 CNS = test system: SF-268 CNS
TK-10 renal = test system: TK-10 renal
HCT-15 colon = test system: HCT-15 colon
NCI-H522 lung = test system: NCI-H522 lung
SF-295 CNS = test system: SF-295 CNS
SW-620 colon = test system: SW-620 colon
MDA-MB-435 = test system: MDA-MB-435
MALME-3M melanoma = test system: MALME-3M melanoma
RXF 393 renal = test system: RXF 393 renal
K-562 leukemia = test system: K-562 leukemia
SK-MEL-2 melanoma = test system: SK-MEL-2 melanoma
SK-MEL-5 melanoma = test system: SK-MEL-5 melanoma
LOX IMVI melanoma = test system: LOX IMVI melanoma
BT-549 breast = test system: BT-549 breast
RPMI-8226 leukemia = test system: RPMI-8226 leukemia
U251 CNS = test system: U251 CNS
SN12C renal = test system: SN12C renal
SF-539 CNS = test system: SF-539 CNS
SNB-75 CNS = test system: SNB-75 CNS

`Cc1ccc(N2C(=O)C3c4[nH]c5ccccc5c4C4CCC(C(C)(C)C)CC4C3C2=O)cc1` (centres undefined) was tested, and the TGI (HS 578T breast) was 16.9 µM, the TGI (SK-OV-3 ovarian) was 28.2 µM and the TGI (OVCAR-5 ovarian) was 39.3 µM. The TGI (CCRF-CEM leukemia) was 15.4 µM, the TGI (PC-3 prostate) was 31.8 µM and the TGI (DU-145 prostate) was 5.82 µM. For the same molecule, the TGI (NCI-H460 lung) was 17.2 µM, the TGI (MOLT-4 leukemia) was 9.2 µM and the TGI (IGROV1 ovarian) was 25.2 µM. It also gave a TGI (ACHN renal) of 13.6 µM, a TGI (HT29 colon) of 46.1 µM and a TGI (NCI-H226 lung) of 33.2 µM. It also gave a TGI (HCT-116 colon) of 24.6 µM, a TGI (HOP-92 NSCLC) of 32.9 µM and a TGI (UACC-257 melanoma) of 40.5 µM. For the same molecule, the TGI (OVCAR-8 ovarian) was 20.9 µM, the TGI (HL-60(TB) leukemia) was greater than 74.9 µM and the TGI (OVCAR-4 ovarian) was 22.7 µM. The TGI (SK-MEL-28 melanoma) was 49 µM, the TGI (NCI/ADR-RES ovarian) was 31.8 µM and the TGI (UO-31 renal) was 31.3 µM. For the same molecule, the TGI (M14 melanoma) was 35.6 µM, the TGI (SNB-19 CNS) was 21.2 µM and the TGI (MDA-N) was 44.1 µM. For the same molecule, the TGI (A549 NSCLC) was 23.1 µM, the TGI (UACC-62 melanoma) was 31 µM and the TGI (MCF7 breast) was greater than 46 µM. For the same molecule, the TGI (COLO 205 colon) was 22.5 µM, the TGI (EKVX NSCLC) was 42.4 µM and the TGI (MDA-MB-231 breast) was 15.8 µM. It also gave a TGI (T-47D breast) of 36 µM, a TGI (KM12 colon) of 65 µM and a TGI (CAKI-1 renal) of 23.2 µM. It also gave a TGI (NCI-H23 lung) of 32.4 µM, a TGI (SR leukemia) of 16.6 µM and a TGI (786-0 renal) of 14.8 µM. The TGI (HOP-62 NSCLC) was 11.6 µM, the TGI (HCC-2998 colon) was 56.1 µM and the TGI (A498 renal) was 31.3 µM. For the same molecule, the TGI (OVCAR-3 ovarian) was 8.62 µM, the TGI (SF-268 CNS) was 18.9 µM and the TGI (TK-10 renal) was 15.7 µM. For the same molecule, the TGI (HCT-15 colon) was greater than 100 µM, the TGI (NCI-H522 lung) was 26.5 µM and the TGI (SF-295 CNS) was 24.3 µM. It also gave a TGI (SW-620 colon) greater than 47.4 µM, a TGI (MDA-MB-435) of 42 µM and a TGI (MALME-3M melanoma) of 22.6 µM. For the same molecule, the TGI (RXF 393 renal) was 22.1 µM, the TGI (K-562 leukemia) was 17.5 µM and the TGI (SK-MEL-2 melanoma) was 44.6 µM. For the same molecule, the TGI (SK-MEL-5 melanoma) was 36.4 µM, the TGI (LOX IMVI melanoma) was 26.6 µM and the TGI (BT-549 breast) was 39.3 µM. For the same molecule, the TGI (RPMI-8226 leukemia) was greater than 41.5 µM, the TGI (U251 CNS) was 16.1 µM and the TGI (SN12C renal) was 24.7 µM.
In the case of `Cc1n[nH]c(=O)c2cc(-c3ccccc3)[nH]c12`, the TGI (HS 578T breast) is reported as greater than 100 µM, the TGI (SK-OV-3 ovarian) is reported as greater than 100 µM and the TGI (OVCAR-5 ovarian) is reported as greater than 100 µM. The TGI (CCRF-CEM leukemia) was greater than 100 µM, the TGI (PC-3 prostate) was 96.6 µM and the TGI (DU-145 prostate) was greater than 100 µM. It also gave a TGI (NCI-H460 lung) greater than 100 µM, a TGI (MOLT-4 leukemia) greater than 100 µM and a TGI (IGROV1 ovarian) greater than 100 µM. The TGI (ACHN renal) was greater than 100 µM, the TGI (HT29 colon) was greater than 100 µM and the TGI (NCI-H226 lung) was greater than 100 µM. For the same molecule, the TGI (HCT-116 colon) was greater than 100 µM, the TGI (HOP-92 NSCLC) was greater than 100 µM and the TGI (UACC-257 melanoma) was greater than 100 µM. For the same molecule, the TGI (OVCAR-8 ovarian) was greater than 100 µM, the TGI (HL-60(TB) leukemia) was greater than 100 µM and the TGI (OVCAR-4 ovarian) was greater than 100 µM. It also gave a TGI (SF-539 CNS) greater than 100 µM, a TGI (NCI/ADR-RES ovarian) greater than 100 µM and a TGI (UO-31 renal) greater than 100 µM. The TGI (M14 melanoma) was greater than 100 µM, the TGI (SNB-19 CNS) was greater than 100 µM and the TGI (MDA-N) was greater than 100 µM. The TGI (SNB-75 CNS) was greater than 100 µM, the TGI (A549 NSCLC) was greater than 100 µM and the TGI (UACC-62 melanoma) was greater than 100 µM. The TGI (MCF7 breast) was greater than 100 µM, the TGI (COLO 205 colon) was 71 µM and the TGI (EKVX NSCLC) was greater than 100 µM. For the same molecule, the TGI (MDA-MB-231 breast) was greater than 100 µM, the TGI (T-47D breast) was greater than 100 µM and the TGI (KM12 colon) was greater than 100 µM. For the same molecule, the TGI (CAKI-1 renal) was greater than 100 µM, the TGI (NCI-H23 lung) was greater than 100 µM and the TGI (SR leukemia) was greater than 100 µM. It also gave a TGI (786-0 renal) greater than 100 µM, a TGI (HOP-62 NSCLC) greater than 100 µM and a TGI (HCC-2998 colon) greater than 100 µM. It also gave a TGI (A498 renal) of 92.3 µM, a TGI (OVCAR-3 ovarian) greater than 100 µM and a TGI (SF-268 CNS) greater than 100 µM. It also gave a TGI (TK-10 renal) greater than 100 µM, a TGI (HCT-15 colon) greater than 100 µM and a TGI (SF-295 CNS) greater than 100 µM. The TGI (SW-620 colon) was greater than 100 µM, the TGI (MDA-MB-435) was greater than 100 µM and the TGI (MALME-3M melanoma) was greater than 100 µM. For the same molecule, the TGI (RXF 393 renal) was greater than 100 µM, the TGI (K-562 leukemia) was greater than 100 µM and the TGI (SK-MEL-2 melanoma) was 91.1 µM. For the same molecule, the TGI (SK-MEL-5 melanoma) was greater than 100 µM, the TGI (LOX IMVI melanoma) was greater than 100 µM and the TGI (BT-549 breast) was greater than 100 µM. The TGI (RPMI-8226 leukemia) was greater than 100 µM, the TGI (U251 CNS) was greater than 100 µM and the TGI (SN12C renal) was greater than 100 µM.
